Measurements as given in the supplement of paper PMC10307832.

Key:
Test in all cases: relative viability (nuclei count vs DMSO), 5 days (fraction); higher = more cells survive
COR-L 105 = tested on: COR-L 105
Procedure, shortened: (§1)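 Lung cancer cell lines, seeded in 1536-well plates, were treated the following day by pin tool with a single drug or with five library-drug doses (not always all listed) in √10 steps on top of a fixed anchor-drug dose. Cells were fixed and nuclei stained in one step after 5 days, and nuclei were counted. Relative viability is the nuclei count for treated wells divided by that for vehicle wells, reported as medians of duplicate plates.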

HCC-366 = tested on: HCC-366
Procedure, shortened: as §1

NCI-H1395 = tested on: NCI-H1395
Procedure, shortened: as §1

NCI-H1915 = tested on: NCI-H1915
Procedure, shortened: as §1

LCLC-103H = tested on: LCLC-103H
Procedure, shortened: as §1

CAL-12T = tested on: CAL-12T
Procedure, shortened: as §1

NCI-H727 = tested on: NCI-H727
Procedure, shortened: as §1

HARA = tested on: HARA
Procedure, shortened: as §1

NCI-H2228 = tested on: NCI-H2228
Procedure, shortened: as §1

HOP-62 = tested on: HOP-62
Procedure, shortened: as §1

NCI-H1792 = tested on: NCI-H1792
Procedure, shortened: as §1

NCI-H460 = tested on: NCI-H460
Procedure, shortened: as §1

EMC-BAC-2 = tested on: EMC-BAC-2
Procedure, shortened: as §1

NCI-H1355 = tested on: NCI-H1355
Procedure, shortened: as §1

HCC-827 = tested on: HCC-827
Procedure, shortened: as §1

NCI-H23 = tested on: NCI-H23
Procedure, shortened: as §1

SK-LU-1 = tested on: SK-LU-1
Procedure, shortened: as §1

NCI-H1975 = tested on: NCI-H1975
Procedure, shortened: as §1

A-427 = tested on: A-427
Procedure, shortened: as §1

NCI-H1755 = tested on: NCI-H1755
Procedure, shortened: as §1

NCI-H2009 = tested on: NCI-H2009
Procedure, shortened: as §1

SW 1573 = tested on: SW 1573
Procedure, shortened: as §1

NCI-H1437 = tested on: NCI-H1437
Procedure, shortened: as §1

With `C=C1C(=O)O[C@@H](CCCCCCCC)[C@@H]1C(=O)O` [C-75] + CS(=O)(=O)N1CCN(Cc2cc3nc(-c4cccc5[nH]ncc45)nc(N4CCOCC4)c3s2)CC1 [Pictilisib] (partner 1 µM) the relative viability (COR-L 105; first compound 0.08 µM) was 0.437, the relative viability (COR-L 105; first compound 0.253 µM) was 0.422 and the relative viability (COR-L 105; first compound 0.8 µM) was 0.469. It also gave a relative viability (COR-L 105; first compound 2.53 µM) of 0.432, a relative viability (COR-L 105; first compound 8 µM) of 0.343 and a relative viability (HCC-366; first compound 0.08 µM) of 0.238. It also gave a relative viability (HCC-366; first compound 0.253 µM) of 0.165, a relative viability (HCC-366; first compound 0.8 µM) of 0.152 and a relative viability (HCC-366; first compound 2.53 µM) of 0.264. For the same compound, the relative viability (HCC-366; first compound 8 µM) was 0.148, the relative viability (NCI-H1395; first compound 0.08 µM) was 0.599 and the relative viability (NCI-H1395; first compound 0.253 µM) was 0.572. It also gave a relative viability (NCI-H1395; first compound 0.8 µM) of 0.539, a relative viability (NCI-H1395; first compound 2.53 µM) of 0.474 and a relative viability (NCI-H1395; first compound 8 µM) of 0.7. For the same compound, the relative viability (NCI-H1915; first compound 0.08 µM) was 0.953, the relative viability (NCI-H1915; first compound 0.253 µM) was 1.08 and the relative viability (NCI-H1915; first compound 0.8 µM) was 0.857. It also gave a relative viability (NCI-H1915; first compound 2.53 µM) of 0.828, a relative viability (NCI-H1915; first compound 8 µM) of 0.763 and a relative viability (LCLC-103H; first compound 0.08 µM) of 0.573. The relative viability (LCLC-103H; first compound 0.253 µM) was 0.641, the relative viability (LCLC-103H; first compound 0.8 µM) was 0.517 and the relative viability (LCLC-103H; first compound 2.53 µM) was 0.568. The relative viability (LCLC-103H; first compound 8 µM) was 0.488, the relative viability (CAL-12T; first compound 0.08 µM) was 0.58 and the relative viability (CAL-12T; first compound 0.253 µM) was 0.624. For the same compound, the relative viability (CAL-12T; first compound 0.8 µM) was 0.306, the relative viability (CAL-12T; first compound 2.53 µM) was 0.292 and the relative viability (CAL-12T; first compound 8 µM) was 0.486. It also gave a relative viability (NCI-H727; first compound 0.08 µM) of 0.436, a relative viability (NCI-H727; first compound 0.253 µM) of 0.59 and a relative viability (NCI-H727; first compound 0.8 µM) of 0.339. It also gave a relative viability (NCI-H727; first compound 2.53 µM) of 0.362, a relative viability (NCI-H727; first compound 8 µM) of 0.577 and a relative viability (HARA; first compound 0.08 µM) of 0.413. The relative viability (HARA; first compound 0.253 µM) was 0.432, the relative viability (HARA; first compound 0.8 µM) was 0.375 and the relative viability (HARA; first compound 8 µM) was 0.585. The relative viability (NCI-H2228; first compound 0.08 µM) was 0.429, the relative viability (NCI-H2228; first compound 0.253 µM) was 0.689 and the relative viability (NCI-H2228; first compound 0.8 µM) was 0.221. It also gave a relative viability (NCI-H2228; first compound 2.53 µM) of 0.202, a relative viability (NCI-H2228; first compound 8 µM) of 0.324 and a relative viability (HOP-62; first compound 0.08 µM) of 0.732. It also gave a relative viability (HOP-62; first compound 0.253 µM) of 0.927, a relative viability (HOP-62; first compound 0.8 µM) of 0.788 and a relative viability (HOP-62; first compound 2.53 µM) of 0.73. The relative viability (HOP-62; first compound 8 µM) was 0.545, the relative viability (NCI-H1792; first compound 0.08 µM) was 0.312 and the relative viability (NCI-H1792; first compound 0.253 µM) was 0.268. It also gave a relative viability (NCI-H1792; first compound 0.8 µM) of 0.293, a relative viability (NCI-H1792; first compound 2.53 µM) of 0.261 and a relative viability (NCI-H1792; first compound 8 µM) of 0.343. The relative viability (NCI-H460; first compound 0.08 µM) was 0.396, the relative viability (NCI-H460; first compound 0.253 µM) was 0.472 and the relative viability (NCI-H460; first compound 0.8 µM) was 0.303. The relative viability (NCI-H460; first compound 8 µM) was 0.348, the relative viability (EMC-BAC-2; first compound 0.08 µM) was 0.51 and the relative viability (EMC-BAC-2; first compound 0.253 µM) was 0.491. It also gave a relative viability (EMC-BAC-2; first compound 0.8 µM) of 0.51, a relative viability (EMC-BAC-2; first compound 2.53 µM) of 0.521 and a relative viability (EMC-BAC-2; first compound 8 µM) of 0.587. The relative viability (NCI-H1355; first compound 0.08 µM) was 0.477, the relative viability (NCI-H1355; first compound 0.253 µM) was 0.48 and the relative viability (NCI-H1355; first compound 0.8 µM) was 0.348. The relative viability (NCI-H1355; first compound 2.53 µM) was 0.507, the relative viability (NCI-H1355; first compound 8 µM) was 0.465 and the relative viability (HCC-827; first compound 0.08 µM) was 0.954. The relative viability (HCC-827; first compound 0.253 µM) was 0.95, the relative viability (HCC-827; first compound 0.8 µM) was 1.14 and the relative viability (HCC-827; first compound 2.53 µM) was 0.694. For the same compound, the relative viability (HCC-827; first compound 8 µM) was 0.915, the relative viability (NCI-H23; first compound 0.08 µM) was 0.459 and the relative viability (NCI-H23; first compound 0.253 µM) was 0.686. For the same compound, the relative viability (NCI-H23; first compound 0.8 µM) was 0.416, the relative viability (NCI-H23; first compound 2.53 µM) was 0.475 and the relative viability (NCI-H23; first compound 8 µM) was 0.311. It also gave a relative viability (SK-LU-1; first compound 0.08 µM) of 0.568, a relative viability (SK-LU-1; first compound 0.253 µM) of 0.638 and a relative viability (SK-LU-1; first compound 0.8 µM) of 0.588. It also gave a relative viability (SK-LU-1; first compound 2.53 µM) of 0.574, a relative viability (SK-LU-1; first compound 8 µM) of 0.362 and a relative viability (NCI-H1975; first compound 0.08 µM) of 0.286. The relative viability (NCI-H1975; first compound 0.253 µM) was 0.282, the relative viability (NCI-H1975; first compound 0.8 µM) was 0.278 and the relative viability (NCI-H1975; first compound 2.53 µM) was 0.326. It also gave a relative viability (NCI-H1975; first compound 8 µM) of 0.347, a relative viability (A-427; first compound 0.08 µM) of 0.786 and a relative viability (A-427; first compound 0.253 µM) of 0.75. It also gave a relative viability (A-427; first compound 0.8 µM) of 0.626, a relative viability (A-427; first compound 2.53 µM) of 0.62 and a relative viability (A-427; first compound 8 µM) of 0.718. The relative viability (NCI-H1755; first compound 0.08 µM) was 0.461, the relative viability (NCI-H1755; first compound 0.253 µM) was 0.448 and the relative viability (NCI-H1755; first compound 0.8 µM) was 0.389. It also gave a relative viability (NCI-H1755; first compound 2.53 µM) of 0.339, a relative viability (NCI-H1755; first compound 8 µM) of 0.402 and a relative viability (NCI-H2009; first compound 0.08 µM) of 0.789. The relative viability (NCI-H2009; first compound 0.253 µM) was 0.96, the relative viability (NCI-H2009; first compound 0.8 µM) was 0.789 and the relative viability (NCI-H2009; first compound 2.53 µM) was 0.428. The relative viability (NCI-H2009; first compound 8 µM) was 0.6, the relative viability (SW 1573; first compound 0.08 µM) was 0.555 and the relative viability (SW 1573; first compound 0.253 µM) was 0.511. It also gave a relative viability (SW 1573; first compound 0.8 µM) of 0.482, a relative viability (SW 1573; first compound 2.53 µM) of 0.346 and a relative viability (SW 1573; first compound 8 µM) of 0.365. The relative viability (NCI-H1437; first compound 0.08 µM) was 0.489, the relative viability (NCI-H1437; first compound 0.253 µM) was 0.402 and the relative viability (NCI-H1437; first compound 0.8 µM) was 0.464. For the same compound, the relative viability (NCI-H1437; first compound 2.53 µM) was 0.472 and the relative viability (NCI-H1437; first compound 8 µM) was 0.491.
